Like-named read-outs stand apart in the source and are kept apart here. Numbered stars: 1 amine (or outer) side, 2 acyl side, 3 side chain; on linkers, the order of the positions; unused ones are H or OH. Bridge positions count the residues as written; N and C are the ends. Square brackets hold non-standard residues; d marks the D form. Peptide text beside a SMILES is read from it. I, II: the chains in the order shown. Actinocin(9to1) = Cc1c2oc3c(C)ccc(C(=O)[*:1])c3nc-2c(C(=O)[*:2])c(N)c1=O; NMeV = CN[C@H](C(=O)O)C(C)C; Sar = CNCC(=O)O
Tests used:
ARID1A-WT HCT116 cells = experiment: Drug library screen, cell viability (CellTiter-Glo); type: cell-based, human; design: key to Cell viability, WT: % viability relative to DMSO solvent-treated cells
Experimental: (§1) ARID1A-WT and ARID1A-KO HCT116 cancer cells were used for screening assays. […] Cell viability was assessed after 5 days using the CellTiter-Glo Luminescent Cell Viability Assay (Promega). Luminescence was measured using an Envision Multi-label plate reader (PerkinElmer). The luminescence reading was used to determine the cell viability relative to that of cells treated with solvent (DMSO). Candidate compounds were considered if viability of ARID1A-KO cells was less than […] was more than 80%.

ARID1A-KO HCT116 cells = experiment: as above; type: cell-based, human; design: key to Cell viability, KO: % viability relative to DMSO solvent-treated cells
Experimental: as §1

[1] = HCT116 ARID1A-WT, 10 μM for 5 days, relative to cells treated with solvent (DMSO)
[2] = HCT116 ARID1A-KO, 10 μM for 5 days, relative to cells treated with solvent (DMSO)

Row | Compound | Cell viability, WT (ARID1A-WT HCT116 cells; [1]) | Cell viability, KO (ARID1A-KO HCT116 cells; [2]) | Cell viability, WT (ARID1A-WT HCT116 cells) | Cell viability, KO (ARID1A-KO HCT116 cells)
1 | O=c1[nH]c2ccccc2n1C1CCN(Cc2ccc(-c3nc4cc5[nH]cnc5cc4nc3-c3ccccc3)cc2)CC1 | 84.5 | 124.843 |  | 
2 | COc1cc2c(cc1OC)-c1[nH]nc(Nc3cccc(F)c3)c1C2 | 5.928 | 12.89 |  | 
3 | COc1cc2nccc(Oc3ccc(NC(=S)NC(=O)c4ccccc4C)cc3)c2cc1OC | 99 | 107.0846 |  | 
4 | O=C1Cc2c([nH]c3ccc(Br)cc23)-c2ncccc2N1 [1-Azakenpaullone] | 95.89 | 114.0704 |  | 
5 | C1=Cc2nc1cc1ccc([nH]1)c(-c1ccccc1)c1nc(cc3ccc([nH]3)c2-c2ccccc2)C=C1 [5,15-DPP] | 90.1195 | 98.73 |  | 
6 | O=c1[nH]cc(F)c(=O)[nH]1 [5-FU] | 32.167 | 24.07 |  | 
7 | C=CCNC1=C2C[C@@H](C)C[C@H](OC)[C@H](O)[C@@H](C)/C=C(\C)[C@H](OC(N)=O)[C@@H](OC)/C=C\C=C(/C)C(=O)NC(=CC1=O)C2=O [17-AAG] | 8.063 | 8.214 |  | 
8 | Cc1cccc(-c2nn(C(=S)Nc3ccccc3)cc2-c2ccnc3ccccc23)n1 [A83-01] | 77.92 | 104.8454 |  | 
9 | Nc1ncnc2nc(-c3ccc(N4CCOCC4)nc3)cc(-c3cccc(Br)c3)c12 [ABT-702] | 94.11 | 111.7532 |  | 
10 | N#C/C(=C/c1ccc(O)c(O)c1)C(=O)NCc1ccccc1 [AG490] | 152.9882 | 114.4173 |  | 
11 | COc1cc(/C=C(\C#N)C(N)=O)cc(CSc2nc3ccccc3s2)c1O [AG825] | 85.83 | 80.86 |  | 
12 | COC(=O)c1ccc(NCc2cc(O)ccc2O)cc1 [AG957] | 23.69 | 17.53 |  | 
13 | CC(C)(C)c1cc(C=C(C#N)C#N)cc(Br)c1O [AG1024] | 161.1636 | 183.5477 |  | 
14 | COc1cc2ncc(-c3ccccc3)nc2cc1OC [AG1296] | 190.9406 | 144.7899 |  | 
15 | COc1cc2ncnc(Nc3cccc(Cl)c3)c2cc1OC [AG1478] | 149.2606 | 129.9442 |  | 
16 | N#C/C(=C\c1ccc2oc(=O)[nH]c2c1)C(=O)c1ccc(O)c(O)c1 [AGL 2263] | 148.6873 | 172.9001 |  | 
17 | Cl.Cl.Cl.Cl.Cl.Cl.Cl.Cl.c1cc(CN2CCCNCCNCCCNCC2)ccc1CN1CCCNCCNCCCNCC1 [AMD3100 octahydrochloride] |  |  | 102.6908 | 102.0251
18 | O=C(Nc1ccc2c(O)cc(S(=O)(=O)O)cc2c1)Nc1ccc2c(O)cc(S(=O)(=O)O)cc2c1 [AMI-1] |  | 85.52 |  | 
19 | CC1CCN=C(N)S1.Cl (centres unmarked) [AMT, HCl] | 171.2223 | 139.818 |  | 

Row | Compound | Cell viability, WT (ARID1A-WT HCT116 cells; [1]) | Cell viability, KO (ARID1A-KO HCT116 cells; [2]) | Cell viability, WT (ARID1A-WT HCT116 cells) | Cell viability, KO (ARID1A-KO HCT116 cells)
20 | O=c1cc(-c2cccc3c2Sc2ccccc2S3)oc(N2CCOCC2)c1 [ATM kinase inhibitor] | 70.42 | 83.21 |  | 
21 | O=C(NC(NC(=S)Nc1ccc(F)c([N+](=O)[O-])c1)C(Cl)(Cl)Cl)C(c1ccccc1)c1ccccc1 (centres unmarked) [ATM/ATR kinase inhibitor] | 59.07 | 76.77 |  | 
22 | Clc1ccccc1CNCC1CCC(CNCc2ccccc2Cl)CC1 (centres unmarked) [AY 9944] | 31.41 | 50.15 |  | 
23 | Cc1cn([C@H]2C[C@H](N=[N+]=[N-])[C@@H](CO)O2)c(=O)[nH]c1=O [AZT] | 71.38 | 60.27 |  | 
24 | Cc1c2oc3c(C)ccc(C(=O)N[C@@H]4C(=O)N[C@H](C(C)C)C(=O)N5CCC[C@H]5C(=O)N(C)CC(=O)N(C)[C@@H](C(C)C)C(=O)O[C@@H]4C)c3nc-2c(C(=O)N[C@@H]2C(=O)N[C@H](C(C)C)C(=O)N3CCC[C@H]3C(=O)N(C)CC(=O)N(C)[C@@H](C(C)C)C(=O)O[C@@H]2C)c(N)c1=O [Actinomycin D] (I: T[dV]P[Sar][NMeV] / II: T[dV]P[Sar][NMeV]; ester I:1-I:C, II:1-II:C; linker I:N-II:N via Actinocin(9to1)) | 6.951 | 6.531 |  | 
25 | N#CCCc1ccc2c(c1)-c1[nH]c3ccc([N+](=O)[O-])cc3c1CC(=O)N2 [Alsterpaullone, 2-cyanoethyl] | 6.82 | 14.55 |  | 
26 | CCCCCCCCCCCCCCCc1cccc(O)c1C(=O)O [Anacardic acid] | 102.71 | 112.6464 |  | 
27 | COc1cc2ncnc(Nc3ccc(NC(=O)c4ccccc4)cc3)c2cc1OC [Aurora kinase inhibitor II] | 53.336 | 60.46 |  | 
28 | Nc1ncn([C@@H]2O[C@H](CO)[C@@H](O)[C@H]2O)c(=O)n1 [Azacytidine] | 86.54 | 43.39 |  | 
29 | CC(C)(c1ccc(OCC2CO2)cc1)c1ccc(OCC2CO2)cc1 (centres unmarked) [BADGE] | 93.59 | 107.888 |  | 
30 | CC(C)C(C(=O)O)N1C(=O)/C(=C\c2ccc(Br)cc2)SC1=S (centres unmarked) [BH3I-1] | 99.91 | 109.7951 |  | 
31 | O=C1Nc2cc(Br)ccc2/C1=C1/Nc2ccccc2/C1=N\O [BIO] | 87.19 | 107.4068 |  | 
32 | CO/C1=C\C(C)=C\[C@@H](C)[C@@H](O)[C@@H](C)C/C(C)=C/C=C/[C@H](OC)[C@@H]([C@@H](C)[C@@H](O)[C@H](C)[C@@]2(O)C[C@@H](O)[C@H](C)[C@@H](C(C)C)O2)OC1=O [Bafilomycin AI] | 4.059 | 4.345 |  | 
33 | Nc1nc(OCc2ccccc2)c2nc[nH]c2n1 [Benzylguanine] |  |  | 88.84 | 105.1044
34 | CN(C)CCCn1cc(C2=C(c3c[nH]c4ccccc34)C(=O)NC2=O)c2ccccc21.Cl [Bisindolymaleimide I, HCl] | 8.077 | 6.106 |  | 
35 | C=C1C(=O)OC(CCCCCCCC)C1C(=O)O (centres unmarked) [C75] | 103.4877 | 93.63 |  | 
36 | COC(=O)[C@H](CC(C)C)NC(=O)c1ccc(NC[C@@H](N)CS)cc1-c1ccccc1 [GGTI-286] |  | 123.5827 |  | 
37 | COc1ccc(C[C@H]2NC[C@H](O)[C@H]2OC(C)=O)cc1 [anisomycin] |  | 7.327 |  | 

Reference: patent US20220087987A1, “A METHOD FOR TREATING SWI/SNF COMPLEX-DEFICIENT CANCERS COMPRISING GLUTATHIONE (GSH) METABOLIC PATHWAY INHIBITOR” (National Cancer Center, priority 2018, published 2022)
